Results: patent publication US6989397B1, “Iron chelators and uses thereof” (University of Queensland, priority 1999, dated 2006)
Values joined by “and” are separate entries in the source; they are usually repeats but may differ in a detail not shown here. Equal values may be shown once.

Legend:
[1] = system: SK-N-MC neuroepithelioma cells; assay: internalized 59Fe uptake from 59Fe-transferrin; type: cell-based, human; settings: for Internalised Iron Uptake (% Control) / 59Fe uptake from 59Fe-Tf, % of the control value (FIG. 2B): SK-N-MC, chelators 50 μM, DFO 100 μM; for Internalised Iron Uptake (% Control): 59Fe-transferrin 0.75 μM, 3 h at 37° C., mean±SD; for 59Fe uptake from 59Fe-Tf, % of the control value (FIG. 2B): 3 hrs at 37° C., FIG. 2B screening experiment
Method: The effect of chelators on ^59Fe uptake from ^59Fe-Tf and ^59Fe release from prelabelled cells was studied using standard procedures reported previously (Richardson et al., 1994, J. Lab Clin. Med. 124 660-71). The amount of ^59Fe internalized by the cells was measured by incubation with the general protease pronase (1 mg/ml) for 30 min at 4° C. to remove membrane-bound ^59Fe and Tf (Richardson et al., 1990; Baker et al., 1998, Biochim. Biophys. Acta 1380 21-30). […] To determine the ability of the chelators to inhibit ^59Fe uptake from ^59Fe-Tf (0.75 μM). […] Table 2. The effect of DFO, 311, […], or PCBHH on internalized ^59Fe uptake from ^59Fe-transferrin by BE-2 neuroblastoma cells, SK-N-MC neuroepithelioma cells, and SK-Mel-28 melanoma cells. Cells were incubated with the chelators and ^59Fe-transferrin (0.75 μM) for 3 h at 37° C., washed, and incubated for 30 min at 4° C. with pronase (1 mg/ml) to separate the internalized from the membrane-bound ^59Fe. All chelators were screened at a concentration of 50 μM except for DFO which was examined at 100 μM. Results are mean±SD (three determinations) from a typical experiment.

BE-2 neuroblastoma cells = assay: internalized 59Fe uptake from 59Fe-transferrin; type: cell-based; settings: 59Fe-transferrin 0.75 μM, 3 h at 37° C., chelators 50 μM, DFO 100 μM, mean±SD
Method: The effect of chelators on ^59Fe uptake from ^59Fe-Tf and ^59Fe release from prelabelled cells was studied using standard procedures reported previously (Richardson et al., 1994, J. Lab Clin. Med. 124 660–71). The amount of ^59Fe internalized by the cells was measured by incubation with the general protease pronase (1 mg/ml) for 30 min at 4° C. to remove membrane-bound ^59Fe and Tf (Richardson et al., 1990; Baker et al., 1998, Biochim. Biophys. Acta 1380 21–30).
Table 2. The effect of DFO, 311, PCTH, PCBH, or PCBHH on internalized ^59Fe uptake from ^59Fe-transferrin by BE-2 neuroblastoma cells, SK-N-MC neuroepithelioma cells, and SK-Mel-28 melanoma cells. Cells were incubated with the chelators and ^59Fe-transferrin (0.75 μM) for 3 h at 37° C., washed, and incubated for 30 min at 4° C. with pronase (1 mg/ml) to separate the internalized from the membrane-bound ^59Fe. All chelators were screened at a concentration of 50 μM except for DFO which was examined at 100 μM. Results are mean±SD (three determinations) from a typical experiment.

[2] = system: iron-regulatory proteins (IRPs); assay: iron regulatory protein gel-retardation assay (IRP-RNA binding activity); type: cell-based, human; settings: SK-N-MC cells, 20 hr incubation; chelators 25 μM, DFO 100 μM, FAC 100 μg/ml
Method: FIG. 5. The effect of the chelators on the RNA-binding activity of the iron-regulatory proteins (IRPs) in the SK-N-MC neuroepithelioma cells. Cells were incubated for 20 h with either medium alone (control), ferric ammonium citrate (FAC: 100 μg/ml), DFO (100 μM), or the other chelators (25 μM).
A gel-retardation assay was used to measure the interaction between the IRPs and IRE using established techniques (Leibold et al., […]. Proc. Natl. Acad. Sci. USA 85 2171–5; Müllner et al., 1989 Cell 58 373–82). Briefly, after incubation with medium alone (control) or medium containing ferric ammonium citrate (100 μg/ml: Aldrich Ltd., Sydney, Australia) or the chelator. […] cells were washed with ice-cold phosphate-buffered saline (PBS) and lysed at 4° C. in 40 μl of ice-cold Munro extraction buffer (10 mM HEPES, pH 7.6, 3 mM MgCl2, 40 mM KCl, 5% glycerol, 1 MM dithiothreitol and 0.5% Nonidet P-40). After lysis, the samples were then centrifuged at 10,000 rpm for 3 mins at 4° C. to remove nuclei and the supernatant stored at −70° C. Frozen cytoplasmic extracts were thawed on ice and then centrifuged at 15,000 rpm for 10 min at 4° C. The protein concentration of the soluble supernatant was determined using the BioRad protein assay (BioRad Ltd., USA). Samples of cytoplasmic extracts were diluted to a protein concentration of 100 μg/ml in Munro buffer without Nonidet P-40 and 1 μg aliquots were analyzed for IRP by incubation with 0.1 ng (approximately 1×10^5 cpm) of ^32P-labelled pGL66 RNA transcript (Leibold et al., 1988). The riboprobe was transcribed in vitro from linearized plasmid templates using SP6 RNA polymerase in the presence of α-^32P UTP (Dupont, NEN). This latter reaction was performed using the Promega Riboprobe In Vitro Transcription Kit (Promega, Madison, Wis., USA). The probe was subsequently purified on a 6% urea/PAGE gel. To form RNA-protein complexes, cytoplasmic extracts containing 1 μg of protein were incubated for 10 mins at room temperature with the ^32P-labelled riboprobe. Unprotected probe was degraded by incubation with 1 U of RNAse T1 for 10 mins at room temperature. Heparin (Sigma) at a final concentration of 5 mg/ml was then added and incubated with the extract for another 10 min at room temperature to exclude non-specific binding. RNA-protein complexes were analyzed in 6% non-denaturing polyacrylamide gels at 4° C. as described by Konarska et al., 1986, Cell 46 845–55. Gels were dried, covered in plastic film and exposed to Kodak XAR films at −70° C. with an intensifying screen.
An important effect of intracellular Fe depletion using DFO is the activation of RNA-binding activity of the iron regulatory proteins (IRP's) (Hentze et al., 1996, Proc. Natl. Acad. Sci. USA 93 8175–82). […] The present inventors examined the effect of a 20 hr incubation with 311, PIH and the PCIH analogues (25 μM) on IRP-RNA binding activity in SK-N-MC cells. In all experiments, DFO (100 μM) was used as a positive control to deplete cells of Fe and increase IRP-RNA binding activity. In contrast, ferric ammonium citrate (FAC: 100 μg/ml) was used to donate Fe to cells and reduce IRP-RNA binding.

IRP-RNA binding activity compared to the control (FIG. 5) [2] | SMILES | 59Fe uptake from 59Fe-Tf, % of the control, range over all 3 cell lines ([1]; BE-2, SK-N-MC and SK-Mel-28 cell lines together, 3 hr, 50 μM, Table 2) | Internalised Iron Uptake (% Control) [1] | Internalised Iron Uptake (% Control) (BE-2 neuroblastoma cells) | 59Fe uptake from 59Fe-Tf, % of the control value (FIG. 2B) [1]
marked increase | O=C(NN=Cc1c(O)ccc2ccccc12)c1ccncc1 [Chelator 311, 2-hydroxy-1-naphthylaldehyde isonicotinoyl hydrazone, reference compound] | 8–10 % of the control | 10 ± 4 % Control | 8 ± 1 % Control | –
decreased | O=C(NN=Cc1ccco1)c1ccncc1 [FIH, 2furoylcarboxaldehyde isonicotinoyl hydrazone] | – | – | – | no effect
marked increase | O=C(NN=Cc1ccccn1)c1ccccc1 [PCBH, 2-pyridylcarboxaldehyde benzoyl hydrazone] | – | 20 ± 2 % Control | 25 ± 4 % Control | –
marked increase | O=C(NN=Cc1ccccn1)c1cccs1 [PCTH, 2-pyridylcarboxaldehyde 2-thiophenecarboxyl hydrazone] | – | 16 ± 1 % Control | 25 ± 3 % Control | –

SMILES | IRP-RNA binding activity compared to the control (FIG. 5) [2] | 59Fe uptake from 59Fe-Tf, % of the control, range over all 3 cell lines ([1]; BE-2, SK-N-MC and SK-Mel-28 cell lines together, 3 hr, 50 μM, Table 2) | Internalised Iron Uptake (% Control) [1] | Internalised Iron Uptake (% Control) (BE-2 neuroblastoma cells) | 59Fe uptake from 59Fe-Tf, % of the control value (FIG. 2B) [1]
CC(=O)N(O)CCCCCNC(=O)CCC(=O)N(O)CCCCCNC(=O)CCC(=O)N(O)CCCCCN [DFO, desferrioxamine, reference compound] | increase | – | 100 % Control and 100 ± 6 % Control | 42 % Control and 42 ± 3 % Control | 91 % of the control
